Counter-ions that a name gives are not always drawn.
Conditions: use of CAPTISOL

SMILES: OC(COc1cccc2ncccc12)CN1CCN([C@@H]2c3ccccc3[C@@H]3[C@H](c4ccccc42)C3(F)F)CC1 (stereo partly shown) [zosuquidar trihydrochloride]
- increase in water solubility: > 5 fold

Reference: patent publication US20070010486A1 (priority 2005, published 2007)
